Experimental data as given in patent US20060160721A1, “Method of plasma lipidation to prevent, inhibit and/or reverse atherosclerosis” (BAYLOR COLLEGE OF MEDICINE, priority 2004, published 2006).

Test: Lipoprotein cholesterophilicity: cholesterol partitioning between lipoproteins and 2-hydroxypropyl-cyclodextrin (CDX)
Assay type: binding
Conditions: isolated LDL and HDL enriched with POPC by DP
Method: Control samples were prepared without detergent or POPC. The samples were dialyzed as described above. […] The samples were incubated for three hours and transferred to Microcon ultracentrifugal filters with an exclusion limit of 30 kDa and centrifuged for 10 min at 12,000 rpm in an Eppendorf microfuge. Aliquots of the retentate and filtrate were analyzed for cholesterol, protein, and phospholipid. The partition coefficient Kp for the distribution of cholesterol between TLP and CDX was calculated from Kp={FCBound×[[…]} Equation 1 where TLPPro is the initial TLP-protein concentration (mg/mL), […], and FCBound, respectively are the free cholesterol concentrations in the retentate, filtrate, and bound to TLP with FCBound calculated as […].

CCCCCCCC/C=C\CCCCCCCC(=O)O[C@H](COC(=O)CCCCCCCCCCCCCCC)COP(=O)([O-])OCC[N+](C)(C)C [POPC, 1-palmitoyl-2-oleoyl (PO) PC]
effect of added POPC on the cholesterophilicities of LDL and HDL: dose-dependent increase
